According to patent US20250009726A1, “A PHARMACEUTICAL COMPOSITION OF FXR AGONIST AND ITS PREPARATION METHOD” (GANNEX PHARMA CO., LTD., priority 2021, published 2025):
Entries after “also recorded” stand apart in the source; their conditions may differ.

What was measured:
Format in all cases: physicochemical
[1] = Related substances of pilot tablet batches and API (area normalization); details: batch after manufacture
Text: The amount of impurities in each batch of samples were relatively stable and no significant change in the amount and type of impurities was observed after the tableting process.

[2] = Log D of the compound of formula (I)
Text: (§1) The solubility of drugs in the acidic environment of the gastrointestinal tract is a prerequisite for their transmembrane transport and absorption into the human body to exert efficacy. Therefore, the very low solubility of the compound limits its use for development as a drug candidate.

[3] = Compatibility test of API and excipients (strong light, high temperature, high humidity, 17 days)
[4] = Solubility in solvents (descriptive)
Text: as §1

[5] = Equilibrium solubility in media with different pH values (shaking 72 h, 37° C.); details: for solubility thermodynamic at 72 h: thermodynamic from solid
[6] = pKa of the compound of formula (I)
Text: as §1

[7] = normal temperatur, 92.5% RH-17 Days

- COMPOUND I-C ([1]; criterion NMT 0.15%): Not detected
- COMPOUND I-IM1 ([1]; criterion NMT 0.15%): 0.12%
- COMPOUND I-IM2 ([1]; criterion NMT 0.15%): 0.12%
- Any individual unspecified impurity ([1]; criterion NMT 0.2%): 0.048%
- COMPOUND I-B ([1]; criterion NMT 0.20%): 0.015%
- Total impurities ([1]; criterion NMT 2.0%): 0.47%
- logD [2]: 5.76
- Related substances (%) COMPOUND I-B ([3]; 0 Day): 0.2869%
- Related substances (%) COMPOUND I-IM1 ([3]; 0 Day): 0.2264%
- Related substances (%) Other maximum impurities ([3]; 0 Day): 0.1001%
- Related substances (%) Total impurities ([3]; 0 Day): 1.4056%
- Related substances (%) COMPOUND I-B ([3]; 25° C., 4500Lx-17 Days): 0.2896%
- Related substances (%) COMPOUND I-IM1 ([3]; 25° C., 4500Lx-17 Days): 0.2338%
- Related substances (%) Other maximum impurities ([3]; 25° C., 4500Lx-17 Days): 0.1135%
- Related substances (%) Total impurities ([3]; 25° C., 4500Lx-17 Days): 1.4901%
- Related substances (%) COMPOUND I-B ([3]; 60° C.-17 Days): 0.2964%
- Related substances (%) COMPOUND I-IM1 ([3]; 60° C.-17 Days): 0.2278%
- Related substances (%) Other maximum impurities ([3]; 60° C.-17 Days): 0.1158%
- Related substances (%) Total impurities ([3]; 60° C.-17 Days): 1.4686%
- Related substances (%) COMPOUND I-B [3, 7]: 0.2836%
- Related substances (%) COMPOUND I-IM1 [3, 7]: 0.2318%
- Related substances (%) Other maximum impurities [3, 7]: 0.1124%
- Related substances (%) Total impurities [3, 7]: 1.4400%
- total impurity fluctuations of related substances ([3]; strong light, high temperature and high humidity, compared with 0 day): less than 0.5%
- solubility ([4]; 0.01 mol/L sodium hydroxide solutions): practically insoluble
- solubility ([4]; N, N-dimethylformamide): soluble
- solubility ([4]; acetonitrile): practically insoluble
- solubility ([4]; dimethyl sulfoxide): soluble
- solubility ([4]; ethyl acetate): practically insoluble
- solubility ([4]; methanol): soluble
- solubility ([4]; tetrahydrofuran): practically insoluble
- solubility ([4]; water): practically insoluble
- solubility thermodynamic at 72 h ([5]; aqueous buffer, pH 6.0, 37° C.): 1.5 µg/mL
- solubility thermodynamic at 72 h ([5]; aqueous buffer, pH 6.8, 37° C.): 217 µg/mL
- solubility thermodynamic at 72 h ([5]; aqueous buffer, pH 7.0, 37° C.): 365 µg/mL
- solubility thermodynamic at 72 h ([5]; aqueous buffer, pH 8.0, 37° C.): 20400 µg/mL
- solubility (in words) ([5]; low pH (pH 1.0-5.0)): almost insoluble
- solubility (in words) ([5]; low pH (pH 1.0-5.0), listed as compound of formula (I)): practically insoluble
- solubility (in words) ([5]; pH 6.8): very slightly soluble
- solubility thermodynamic at 72 h ([5]; water, pH 9.3, water, H2O (The final pH was around 9.3), 37° C.): 22300 µg/mL
- pKa [6]: 3.76
Structure (SMILES): O=C([O-])c1ccc(Oc2ccc3cc(OCc4c(-c5c(Cl)cccc5Cl)noc4C4CC4)ccc3c2)nc1.[Na+] [COMPOUND I, 6-(6-(((5-cyclopropyl-3-(2,6-dichlorophenyl)isoxazol-4-yl)methoxy)naphthalene-2-yl)oxy) sodium nicotinate]
- solubility (in words) ([5]; pure water): sparingly soluble; also recorded: slightly soluble
